For data set [1], the system named is L1210. The data set is described as follows: Antitumor activity against mouse L1210 cells […] in ip dosed C3H X DBA2 F1 hybrid mouse on day 0 and dosed at LD10 level once daily on days 1 to 5 assessed as increase in life span relative to control. The format is functional.
For a further data set, the species on record is Bos taurus. In words: Displacement of ethidium from calf thymus DNA by fluorimetric method.
A further data set relates to Mus musculus. The data set is described as follows: Toxicity in ip dosed C3H X DBA2 F1 hybrid mouse […] with mouse L1210 cells on day 0 and dosed once daily on days 1 to 5 measured after 50 days. The format is organism-based. To be noted: in vivo, 1200 h.
The nature of data set [2]: Lipophilic-hydrophilic balance, Rm of the compound by partition chromatography. The format is physicochemical.
Data set [3] in a line: Displacement of ethidium from poly[d(A-T)]-poly[d(A-T)] DNA by fluorimetric method.
The nature of data set [4]: Displacement of ethidium from poly[d(G-C)]-poly[d(G-C)] DNA (unknown origin) by fluorimetric method.
For data set [5], the system named is L1210. In words: Antitumor activity against mouse L1210 cells […] in ip dosed C3H X DBA2 F1 hybrid mouse on day 0 and dosed once daily on days 1 to 5 assessed as increase in life span relative to control. The format is functional.

Several values for one entry are separate records, joined by “and”; a condition that tells them apart may be missing. Equal entries are not always repeated.

As to `CCC[n+]1ccccc1-c1ccc(NC(=O)c2ccc(C(=O)Nc3ccc(-c4cccc[n+]4CCC)cc3)cc2)cc1.Cc1ccc(S(=O)(=O)[O-])cc1.Cc1ccc(S(=O)(=O)[O-])cc1`, the “log(ILSmax)” value with L1210 [1] was <1.4. Also, the C50 came out at 2.2 µM in the data set filed under Bos taurus, 0.83 µM in data set [3] and 2.9 µM in data set [4]. Besides, the LD10 with Mus musculus turned out to be 11 mg/kg. The same compound showed a Rm in data set [2] of 0.4.
For the compound `C[n+]1ccc(Nc2ccc(NC(=O)c3ccc(Nc4nc[n+](C)c5ccc(N)cc45)cc3)cc2)cc1.Cc1ccc(S(=O)(=O)[O-])cc1.Cc1ccc(S(=O)(=O)[O-])cc1`, the “log(ILSmax)” value in the data set with L1210 [1] was <1.4. The C50 was determined as 0.88 µM in the data set filed under Bos taurus, 0.5 µM in data set [3] and 1.7 µM in data set [4]. The LD10 in the data set with Mus musculus was 3 mg/kg. This compound yielded a Rm in data set [2] of 0.13.
For the compound `Cn1cc(NC(=O)c2cc(NC(=O)c3cc(NC=O)cn3C)cn2C)cc1C(=O)NCCC(=N)N`, the values for the C50 (in the data set listed under Bos taurus; in data set [3]; in data set [4]) were 0.68 µM, 0.07 µM and 2.4 µM, respectively.
Take `CCCC[n+]1cccc2cc(NC(=O)c3ccc(C(=O)Nc4ccc5c(ccc[n+]5CCCC)c4)nc3)ccc21.Cc1ccc(S(=O)(=O)[O-])cc1.Cc1ccc(S(=O)(=O)[O-])cc1`: the “log(ILSmax)” value in the data set on L1210 [1] was 1.87. Also, the LD10 with Mus musculus stood at 175 mg/kg. The D40 with L1210 [5] is 120 mg/kg. The compound also returned a Rm in data set [2] of 0.31.
Turning to `CC[n+]1cc(-c2ccc(NC(=O)c3ccc(Nc4cc[n+](CC)c5ccc(N)cc45)cc3N)cc2)c(N)nc1N.Cc1ccc(S(=O)(=O)[O-])cc1.Cc1ccc(S(=O)(=O)[O-])cc1`, in the data set with L1210 [1], the “log(ILSmax)” value is 2.28. The compound also came in with an LD10 in the data set with Mus musculus of 100 mg/kg. In addition, the D40 in the data set with L1210 [5] was 8.6 mg/kg. The same compound returned a Rm in data set [2] of 0.33.
The like results for `C[n+]1ccc(Nc2ccc(NC(=O)c3ccc(C(=O)Nc4ccc(C(=O)Nc5ccc[n+](C)c5)cc4)cc3)cc2)cc1.[I-].[I-]` were, in that order, 2.12, 4.5 mg/kg, 0.5 mg/kg and -0.12.
The like results for `CC[n+]1cccc2cc(NC(=O)c3ccc(C(=O)Nc4ccc5c(ccc[n+]5CC)c4)nc3)ccc21.Cc1ccc(S(=O)(=O)[O-])cc1.Cc1ccc(S(=O)(=O)[O-])cc1` were, in that order, 1.42, 6 mg/kg, 6 mg/kg and -0.15.
Taken in the same sequence, the figures for `CC[n+]1cccc(NC(=O)c2ccc(NC(=O)c3ccc(C(=O)Nc4ccc(C(=O)Nc5ccc[n+](CC)c5)c(OC)c4)cc3)cc2OC)c1.Cc1ccc(S(=O)(=O)[O-])cc1.Cc1ccc(S(=O)(=O)[O-])cc1` were 1.76, 40 mg/kg, 24 mg/kg and 0.45.
On to `CCC[n+]1cccc(NC(=O)c2ccc(NC(=O)c3ccc(C(=O)Nc4ccc(C(=O)Nc5ccc[n+](CCC)c5)c(OC)c4)cc3)cc2OC)c1.Cc1ccc(S(=O)(=O)[O-])cc1.Cc1ccc(S(=O)(=O)[O-])cc1`, for which the “log(ILSmax)” value with L1210 [1] was found to be 1.79. The LD10 in the data set on Mus musculus was 37 mg/kg. The D40 with L1210 [5] came to 22 mg/kg. The compound further yielded a Rm in data set [2] of 0.7.
Taken in the same sequence, the figures for `CC[n+]1ccc(Nc2ccc(NC(=O)/C=C/c3ccc(C(=O)Nc4ccc(Nc5cc[n+](CC)cc5)cc4)cc3)cc2)cc1.Cc1ccc(S(=O)(=O)[O-])cc1.Cc1ccc(S(=O)(=O)[O-])cc1` were 2.2, 8 mg/kg, 1.6 mg/kg and -0.03.
The like results for `CCC[n+]1ccc(-c2ccc(NC(=O)c3ccc(Nc4cc[n+](CCC)c5ccccc45)cc3)cc2)cc1.[Br-].[Br-]` were, in that order, 1.6, 4.8 mg/kg, 4.8 mg/kg and 0.8.
Consider `CC[n+]1ccc(Nc2ccc(NC(=O)/C=C/c3ccc(/C=C/C(=O)Nc4ccc(Nc5cc[n+](CC)cc5)cc4)cc3)cc2)cc1.Cc1ccc(S(=O)(=O)[O-])cc1.Cc1ccc(S(=O)(=O)[O-])cc1`, for which, in the data set with L1210 [1], the “log(ILSmax)” value turned out to be 1.88. In the data set with Mus musculus, this compound had an LD10 of 32 mg/kg. The D40 with L1210 [5] is 9 mg/kg. For the same compound, in data set [2], the Rm is listed as -0.05.
For the compound `CC[n+]1ccc(-c2ccc(-c3ccc(-c4ccc(NC(=O)c5ccc(C(=O)Nc6ccc(-c7ccc(-c8ccc(-c9cc[n+](CC)cc9)cc8)cc7)cc6)cc5)cc4)cc3)cc2)cc1.Cc1ccc(S(=O)(=O)[O-])cc1.Cc1ccc(S(=O)(=O)[O-])cc1`, in the data set with L1210 [1], the “log(ILSmax)” value came to 2.23. The compound further had an LD10 with Mus musculus of 14 mg/kg. In addition, the D40 in the data set with L1210 [5] came to 1.2 mg/kg. In addition, the Rm in data set [2] worked out at 0.09.
Consider `CC[n+]1cccc2ccc(NC(=O)c3ccc(NC(=O)c4ccc(C(=O)Nc5ccc6ccc[n+](CC)c6c5)cc4)cc3)cc21.Cc1ccc(S(=O)(=O)[O-])cc1.Cc1ccc(S(=O)(=O)[O-])cc1`, for which the “log(ILSmax)” value in the data set with L1210 [1] is listed as 2. This compound also returned an LD10 with Mus musculus of 30 mg/kg. In addition, in the data set on L1210 [5], the D40 worked out at 12 mg/kg. The Rm in data set [2] is on record as -0.4.
As to `C[n+]1cccc(NC(=O)c2ccc(NC(=O)c3ccc(C(=O)Nc4ccc5c(ccc[n+]5C)c4)cc3)cc2)c1.Cc1ccc(S(=O)(=O)[O-])cc1.Cc1ccc(S(=O)(=O)[O-])cc1`, in the data set on L1210 [1], the “log(ILSmax)” value stood at 2.03. Also, the LD10 in the data set on Mus musculus was 27 mg/kg. Also, the D40 with L1210 [5] turned out to be 12 mg/kg. Moreover, the Rm in data set [2] is on record as -0.25.
The like results for `C[n+]1cc(-c2ccc(NC(=O)c3ccc(C(=O)Nc4ccc(-c5c[n+](C)c(N)nc5N)cc4)cc3)cc2)c(N)nc1N.Cc1ccc(S(=O)(=O)[O-])cc1.Cc1ccc(S(=O)(=O)[O-])cc1` were, in that order, 2.22, 12 mg/kg, 1.5 mg/kg and -0.42.
For the compound `CC[n+]1cccc2ccc(NC(=O)c3ccc(-c4ccc(-c5ccc(-c6ccc(C(=O)Nc7ccc8ccc[n+](CC)c8c7)cc6)cc5)cc4)cc3)cc21.Cc1ccc(S(=O)(=O)[O-])cc1.Cc1ccc(S(=O)(=O)[O-])cc1`, in the data set on L1210 [1], the “log(ILSmax)” value was found to be 2.02. For the same compound, the LD10 with Mus musculus was determined as 106 mg/kg. Besides, the D40 in the data set on L1210 [5] was 20.4 mg/kg. Moreover, the Rm in data set [2] was determined as 0.08.
The like results for `CC[n+]1ccc(-c2ccc(NC(=O)c3ccc(Nc4cc[n+](CC)c5ccccc45)cc3)cc2)cc1.Cc1ccc(S(=O)(=O)[O-])cc1.Cc1ccc(S(=O)(=O)[O-])cc1` were, in that order, 1.98, 10 mg/kg, 2.7 mg/kg and 0.55.
Taken in the same sequence, the figures for `CCC[n+]1cccc2cc(NC(=O)c3ccc(C(=O)Nc4ccc(NC(=O)c5ccc6c(ccc[n+]6CCC)c5)cc4)cc3)ccc21.Cc1ccc(S(=O)(=O)[O-])cc1.Cc1ccc(S(=O)(=O)[O-])cc1` were 2.08, 80 mg/kg, 60 mg/kg and 0.
For the compound `CC[n+]1ccc(Nc2ccc(NC(=O)c3ccc(Nc4cc[n+](CC)c5ccccc45)cc3N)cc2)cc1.[I-].[I-]`, in the data set with L1210 [1], the “log(ILSmax)” value is given as 1.95. In addition, the LD10 with Mus musculus amounted to 53 mg/kg. For the same compound, in the data set on L1210 [5], the D40 was 11.9 mg/kg. The Rm in data set [2] is listed as 0.65.
As for `C[n+]1ccc(Nc2ccc(NC(=O)c3ccc(C(=O)Nc4ccc(C(=O)Nc5ccc[n+](C)c5)cc4)cc3)cc2)cc1`, the C50 in the data set filed under Bos taurus was 0.63 µM and 0.84 µM; in data set [3] it was 0.34 µM and 0.44 µM; in data set [4], 0.97 µM and 1.35 µM.
As to `CCC[n+]1cccc2cc(NC(=O)c3ccc(-c4ccc(-c5ccc(-c6ccc(C(=O)Nc7ccc8c(ccc[n+]8CCC)c7)cc6)cc5)cc4)cc3)ccc21.Cc1ccc(S(=O)(=O)[O-])cc1.Cc1ccc(S(=O)(=O)[O-])cc1`, the “log(ILSmax)” value in the data set on L1210 [1] is recorded as 2.01. The compound further returned an LD10 in the data set with Mus musculus of 45 mg/kg. In the data set with L1210 [5], the D40 came out at 17 mg/kg. For the same compound, the Rm in data set [2] stood at 0.49.
As for `CC[n+]1cccc2cc(NC(=O)c3ccc(NC(=O)c4ccc(C(=O)Nc5ccc6c(ccc[n+]6CC)c5)cc4)cc3)ccc21.Cc1ccc(S(=O)(=O)[O-])cc1.Cc1ccc(S(=O)(=O)[O-])cc1`, in the data set on L1210 [1], the “log(ILSmax)” value is 2.05. The compound also had an LD10 with Mus musculus of 45 mg/kg. Further, the D40 in the data set on L1210 [5] is 13 mg/kg. Also, the Rm in data set [2] is given as -0.52.
The like results for `CCCCC[n+]1cccc2cc(NC(=O)COc3ccc(C(=O)Nc4ccc5c(ccc[n+]5CCCCC)c4)cc3)ccc21.Cc1ccc(S(=O)(=O)[O-])cc1.Cc1ccc(S(=O)(=O)[O-])cc1` were, in that order, 1.53, 150 mg/kg, 100 mg/kg and 0.78.
The like results for `CC[n+]1ccc(Nc2ccc(NC(=O)c3ccc(C(=O)Nc4ccc(Nc5cc[n+](CC)cc5)cc4)cc3)cc2)cc1.Cc1ccc(S(=O)(=O)[O-])cc1.Cc1ccc(S(=O)(=O)[O-])cc1` were, in that order, 2.24, 2.5 mg/kg, 0.5 mg/kg and 0.46.
Taken in the same sequence, the figures for `CC[n+]1cccc(NC(=O)c2ccc(NC(=O)c3cccc(C(=O)Nc4ccc(C(=O)Nc5ccc[n+](CC)c5)cc4)c3)cc2)c1.Cc1ccc(S(=O)(=O)[O-])cc1.Cc1ccc(S(=O)(=O)[O-])cc1` were 1.6, 12 mg/kg, 12 mg/kg and 0.51.
In the case of `CCC[n+]1cccc2cc(NC(=O)/C=C/c3ccc(C(=O)Nc4ccc5c(ccc[n+]5CCC)c4)cc3)ccc21.Cc1ccc(S(=O)(=O)[O-])cc1.Cc1ccc(S(=O)(=O)[O-])cc1`, the “log(ILSmax)” value in the data set on L1210 [1] was 2. This compound also came in with an LD10 with Mus musculus of 20 mg/kg. Also, the D40 in the data set on L1210 [5] was 4.3 mg/kg. Besides, in data set [2], the Rm was found to be 0.5.

These data come from ChEMBL document CHEMBL3228010, “Potential antitumor agents. 29. Quantitative structure-activity relationships for the antileukemic bisquaternary ammonium heterocycles” (J Med Chem, 1979).
